In PubChem BioAssay (NCI) one finds GI50 and TGI data, which are given here for 17 molecules.

Several values for one entry are separate records, joined by “and”; a condition that tells them apart may be missing. Identical values can stand only once.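 48-hour exposure; five concentrations; linearly interpolated endpoints. GI50 = concentration required for 50% inhibition of growth. TGI marks complete inhibition of growth.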

For this assay, the system named is MDA-MB-468 breast. Briefly: NCI-60 cell line screen, 48 h.
As for `CC(C)c1ccc(Nc2ccc3c(OCCCN4CCN(C)CC4)cccc3n2)cc1`, the GI50 is 12300 nM and the TGI is 26000 nM.

With `O=C(OCc1ccc2cccc(O)c2n1)N1CCN(C(=O)c2cc3cc(F)ccc3[nH]2)CC1`, the GI50 was 1510 nM and the TGI is 3280 nM.

In the case of `Cc1ccc(C(SCC(N)C(=O)O)(c2ccccc2)c2ccc(C)cc2)cc1` (centres undefined), the GI50 was 118 nM and the TGI worked out at 533 nM.

Take `C#Cc1cccc(Nc2ncnc3cc(OC)c(OCCCCCCC(=O)NO)cc23)c1`: the GI50 is 7.53 nM and the TGI stood at 81.4 nM.

For `CC/C(=C(/c1ccc(OCCN(C)C)cc1)c1ccc(OC(=O)CCCCC(=O)c2c(C)[nH]c(/C=C3\N=C(c4ccc[nH]4)C=C3OC)c2C)cc1)c1ccccc1`, the GI50 is 2470 nM and the TGI amounted to 14700 nM.

Turning to `COCCOc1cc(F)c2c(Nc3ccc(NC(=O)Cn4cc(C(C)C)nn4)cc3)ncnc2c1`, the GI50 was 57100 nM and the TGI was greater than 100000 nM.

As to `CCN1CCN(c2ccc(Nc3cc(N(C)C(=O)Nc4c(Cl)c(OC)cc(OC)c4Cl)ncn3)cc2)CC1`, the GI50 is 3010 nM and the TGI is 11700 nM.

For the molecule `CCOc1nc(-c2ccccc2)cc2c(O)c(-c3nnco3)[nH]c(=O)c12`, the GI50 is 1550 nM and the TGI is greater than 25800 nM.

With `COc1ccc(N(C)c2ncnc3occ(C)c23)cc1`, the GI50 was less than 10 nM and the TGI was determined as 15400 nM.

As for `O=[N+]([O-])c1ccc(C=C2C(Cl)=C(Cl)C(Cl)=C2Cl)cc1`, the GI50 was 1700 nM and the TGI was 3350 nM.

Regarding `CC(C)(C)C(=O)OCOP(=O)(OCOC(=O)C(C)(C)C)C1CCCN(O)C1=O` (centres undefined), the GI50 was 977 nM and the TGI came to 5480 nM.

Consider `C=C(F)C(=O)N1CCN(c2nc(OC[C@@H]3CCCN3C)nc3c2CCN(c2cccc4cccc(Cl)c24)C3)C[C@@H]1CC#N`, for which the GI50 was 1220 nM and the TGI was 2580 nM.

Take `NC(=NCCCOc1ccc(Cl)cc1)Nc1ccc(C(F)(F)F)cc1`: the GI50 was 1630 nM and the TGI turned out to be 3610 nM.

Consider `CC1OC2CC(=O)OC2C2=C1C(=O)c1c(O)cccc1C2=O` (centres undefined), for which the GI50 was 20.8 nM and the TGI was found to be 52.5 nM.

With `CC(SC(C)C(=O)N/N=C/c1cccc(Cl)c1)C(=O)N/N=C\c1cccc(Cl)c1` (centres undefined), the GI50 is 21700 nM and the TGI came to 52900 nM.

Take `CC[C@]12C=CCN3CC[C@@]4(c5ccc(OC)cc5N(C)[C@H]4[C@@](O)(C(=O)OC)[C@@H]1OC(=O)CCC[P+](c1ccccc1)(c1ccccc1)c1ccccc1)[C@@H]32`: the GI50 is 123 nM and 217 nM; the TGI is 377 nM and 653 nM.

As to `C[C@H]1c2cccc(O)c2C(O)=C2C(=O)[C@]3(O)C(O)=C(C(N)=O)C(=O)[C@@H](N(C)C)[C@@H]3[C@@H](O)[C@@H]21`, the GI50 was 2050 nM and the TGI was found to be 6440 nM.
